Data published in PubChem BioAssay (NCI).
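How tested: cells in 96-well plates exposed to compound for 48 hours at five concentrations. GI50 = concentration required for 50% inhibition of growth. TGI marks complete inhibition of growth.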

Key:
Assay in all cases: NCI tumour cell line growth inhibition, 48 h
RXF 393 renal = tested on: RXF 393 renal
COLO 205 colon = tested on: COLO 205 colon
OVCAR-3 ovarian = tested on: OVCAR-3 ovarian
SK-MEL-28 melanoma = tested on: SK-MEL-28 melanoma
NCI-H522 lung = tested on: NCI-H522 lung
SN12C renal = tested on: SN12C renal
MCF7 breast = tested on: MCF7 breast
NCI-H23 lung = tested on: NCI-H23 lung
HCT-15 colon = tested on: HCT-15 colon
HCT-116 colon = tested on: HCT-116 colon

Row | Compound | GI50 (RXF 393 renal) [µM] | TGI (RXF 393 renal) [µM] | GI50 (COLO 205 colon) [µM] | TGI (COLO 205 colon) [µM] | GI50 (OVCAR-3 ovarian) [µM] | TGI (OVCAR-3 ovarian) [µM] | GI50 (SK-MEL-28 melanoma) [µM] | TGI (SK-MEL-28 melanoma) [µM] | GI50 (NCI-H522 lung) [µM] | TGI (NCI-H522 lung) [µM] | GI50 (SN12C renal) [µM] | TGI (SN12C renal) [µM] | GI50 (MCF7 breast) [µM] | TGI (MCF7 breast) [µM] | GI50 (NCI-H23 lung) [µM] | TGI (NCI-H23 lung) [µM] | GI50 (HCT-15 colon) [µM] | TGI (HCT-15 colon) [µM] | GI50 (HCT-116 colon) [µM] | TGI (HCT-116 colon) [µM]
1 | CC(=O)NC1C(O[C@H]2C[C@H]3[C@@H]4CC=C5C[C@@H](O)CC[C@]5(C)[C@H]4CC[C@]3(C)[C@H]2[C@H](C)C(=O)CCC(C)C)OCC(O)C1O (stereo not given in full) | 0.398 | 1.41 | 2.13 | 8.75 | 5.2 | 34 | 0.928 | 2.78 | 8.72 | 18.8 | 8.58 | 26.6 | 2.44 | 10.4 | 4.59 | 18.5 | 4.38 | 10.5 | 1.39 | 5.82
2 | Cn1c(=O)c2nc3sc4c(n3c2n(C)c1=O)C(=O)c1ccccc1C4=O | – | > 55.3 | – | > 100 | – | > 50.6 | – | > 100 | – | 27.9 | – | > 87.5 | – | > 62 | – | > 75.1 | – | > 86.5 | – | > 71.4
3 | COc1ccc(-c2cc(/C=C/C(=O)c3ccc(N)cc3)[nH]n2)cc1OC | 2.15 | 5.12 | 1.88 | 3.59 | 1.92 | 4.19 | 2.14 | 5.66 | 1.65 | 3.22 | 3.53 | 13.7 | 2.28 | 8.48 | 4.21 | 19.3 | 1.7 | 5.37 | 1.71 | 3.51
4 | Cc1ccc(NC(=O)c2cc(S(=O)(=O)Nc3nnc(-c4ccccc4)c(-c4ccccc4)n3)c(SCc3ccccc3)cc2Cl)cc1 | 25.6 | 47.2 | 25 | 55.6 | 17.5 | 35.1 | 29.5 | > 100 | 42.4 | > 100 | 18.2 | 43.9 | 24.4 | > 100 | 18.1 | 34.2 | 17.5 | 39.1 | 28.5 | 75.7
5 | O=C(c1cccs1)c1c(C(F)(F)F)n([O-])c2cc(Cl)c(Cl)cc2[n+]1=O | 1.79 | 3.23 | 2 | 4.13 | 0.668 | 1.82 | 1.88 | 4.61 | 0.55 | 2.2 | 1.31 | 2.83 | 0.0762 | 1.17 | 0.919 | 2.37 | 0.286 | 0.808 | 0.429 | 0.913
6 | Nc1nc(=S)c2ncn(C3OC(COP(=O)(O)O)C(O)C3O)c2[nH]1 (stereo not given) | 1.43 | 9.75 | 2.66 | 9.04 | 3.2 | > 100 | 6.57 | > 100 | 2.11 | 9.52 | 3.66 | > 100 | 0.397 | > 100 | 1.93 | > 100 | 1.72 | > 100 | 0.5 | > 100
7 | CC(C)Cc1ccc(C(C)/C=C2\CCC(CN(C)C)C2=O)cc1 (stereo not given) | – | 35.1 | – | 32.1 | – | 26.5 | – | 30.4 | – | 15.2 | – | 20.5 | – | 18 | – | 34 | – | 23.1 | – | 23.1
